The text below walks through data of US5789434A, “Derivatives of substituted 4-biarylbutyric acid as matrix metalloprotease inhibitors” (priority 1995, dated 1998).

Holding throughout (format): biochemical
One assay deals with T1, MMP-2 (Homo sapiens, UniProt P08253).
T1 sequence (P08253 110-660): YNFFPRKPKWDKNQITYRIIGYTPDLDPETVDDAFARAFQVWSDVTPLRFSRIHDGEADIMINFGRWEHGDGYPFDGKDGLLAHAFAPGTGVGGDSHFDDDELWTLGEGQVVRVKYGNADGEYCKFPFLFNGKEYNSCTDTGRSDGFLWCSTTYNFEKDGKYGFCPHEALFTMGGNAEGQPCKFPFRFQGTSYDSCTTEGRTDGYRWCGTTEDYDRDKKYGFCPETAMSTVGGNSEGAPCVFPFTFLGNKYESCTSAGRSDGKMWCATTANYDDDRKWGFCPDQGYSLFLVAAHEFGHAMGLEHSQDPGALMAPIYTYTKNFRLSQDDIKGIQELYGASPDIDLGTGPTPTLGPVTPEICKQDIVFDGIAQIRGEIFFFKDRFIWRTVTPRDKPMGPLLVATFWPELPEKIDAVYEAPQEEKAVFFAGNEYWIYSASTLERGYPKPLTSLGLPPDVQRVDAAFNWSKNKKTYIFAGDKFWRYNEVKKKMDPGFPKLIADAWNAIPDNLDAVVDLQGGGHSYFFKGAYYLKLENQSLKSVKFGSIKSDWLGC
In words: Automated MMP Profiling Assay, MMP-2 fluorogenic. The settings on record: for IC50: 96-well automated, P218, read-out: MMP-2 Fluorogenic IC50 (profiling).

A further assay has as its target T2, MMP-9 (Homo sapiens, UniProt P14780).
T2 construct: from tissue; host or cells: human polymorphonuclear leukocytes (PMN) from whole blood (New York Blood Center), PMA-stimulated supernatant
Briefly: Automated MMP Profiling Assay, MMP-9 fluorogenic. The settings on record: for IC50: 96-well automated, P218.

A further assay deals with T3, MMP-3 (Homo sapiens, UniProt P08254).
T3 construct: Truncated Prostromelysin-257 was expressed in a soluble form in E.coli; made in house; host or cells: E. coli
T3 sequence (P08254 100-274 limits assumed): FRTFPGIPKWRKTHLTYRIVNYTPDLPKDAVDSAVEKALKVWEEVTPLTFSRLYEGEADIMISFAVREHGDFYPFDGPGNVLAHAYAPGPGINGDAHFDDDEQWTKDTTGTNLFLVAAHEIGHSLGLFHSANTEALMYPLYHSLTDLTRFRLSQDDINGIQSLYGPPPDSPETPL
Briefly: Automated MMP Profiling Assay, MMP-3 fluorogenic. Particulars: for IC50: 96-well automated, P218. An excerpt:
This assay with each invention compound was run with the three enzymes MMP-3, MMP-9 and MMP-2 in parallel as adapted for a 96-well microtitre plate using a Hamilton A® workstation.

What is called IC50 is the concentration needed to halve the response being measured. By inhibition is commonly meant the change of the read-out against control, counted positive when it falls.

T2 sequence (P14780 107-707 limits assumed): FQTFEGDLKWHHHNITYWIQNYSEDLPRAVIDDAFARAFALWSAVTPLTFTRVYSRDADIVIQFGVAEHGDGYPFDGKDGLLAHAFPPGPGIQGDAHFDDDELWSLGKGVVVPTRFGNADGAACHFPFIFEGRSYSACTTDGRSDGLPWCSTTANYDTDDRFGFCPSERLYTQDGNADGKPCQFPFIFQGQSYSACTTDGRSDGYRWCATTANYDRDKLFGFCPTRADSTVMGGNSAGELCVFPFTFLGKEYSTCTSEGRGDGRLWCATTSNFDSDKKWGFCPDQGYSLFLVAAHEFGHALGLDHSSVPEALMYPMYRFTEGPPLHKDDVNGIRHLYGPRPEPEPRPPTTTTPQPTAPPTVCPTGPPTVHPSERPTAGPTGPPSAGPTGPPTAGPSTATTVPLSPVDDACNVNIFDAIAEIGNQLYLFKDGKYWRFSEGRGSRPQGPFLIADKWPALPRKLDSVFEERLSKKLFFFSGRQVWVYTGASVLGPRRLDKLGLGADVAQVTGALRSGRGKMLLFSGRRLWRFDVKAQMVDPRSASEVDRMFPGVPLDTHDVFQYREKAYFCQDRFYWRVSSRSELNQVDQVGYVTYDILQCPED

With `CCCCNC(=O)c1ccc(CCC(CC(=O)c2ccc(-c3ccc(Cl)cc3)cc2)C(=O)O)cc1` (stereo not drawn) [Example 152, [1,1'-Biphenyl]-4-butanoic acid, α-[2-[4-[(butylamion)carbonyl]phenyl]ethyl]-4'-chloro-γ-oxo-], the IC50 amounted to 210 nM on MMP-2, 597 nM against MMP-9 and 367 nM on MMP-3.
For `Cc1ccc(COc2ccc(-c3ccc(C(=O)CC(CCCc4ccccc4)C(=O)O)cc3)cc2)cc1` (stereo not drawn) [Example 103, [1,1'-Biphenyl]-4-butanoic acid, 4'-[(4-methylphenyl)methoxy]-γ-oxo-α-(3-phenylpropyl)-], the figures for the IC50 at MMP-2 and at MMP-3 were 30 nM and 57 nM, respectively. This compound registered an inhibition at 5 µM against MMP-9 of 28%.
On to `O=C(O)[C@H]1[C@@H](SCc2ccccc2)CC[C@@H]1C(=O)c1ccc(-c2ccc(Cl)cc2)cc1` (relative stereo) [Example 440, Cyclopentanecarboxylic acid, 2-[(4'-chloro[1,1'-biphenyl]-4-yl)carbonyl]-5-[(phneylmethyl)thio]-, (1α,2β,5α)-], for which the half-maximal inhibitory concentration (IC50) on MMP-2 was found to be 43 nM; on MMP-9 it was 380 nM; at MMP-3 it was 58 nM.
For the compound `CC(=O)NC(CC(=O)c1ccc(-c2ccc(Cl)cc2)cc1)C(=O)O` (stereo not drawn) [Example 430, [1,1'-Biphenyl]-4-butanoic acid, α-(acetylamino)-4'-chloro-γ-oxo-], the half-maximal inhibitory concentration (IC50) on MMP-2 was found to be 419 nM. The inhibition at 5 µM is 37% on MMP-9 and 28% against MMP-3.
In the case of `CCOc1ccc(-c2ccc(C(=O)CC(CCN3C(=O)CCC3=O)C(=O)O)cc2)cc1` (stereo not drawn) [Example 412, 1-Pyrrolidinebutanoic acid, α-[2-(4'-ethoxy[1,1'-biphenyl]-4-yl)-2-oxoethyl]-2,5-dioxo-], the IC50 on MMP-2 was 10 nM; on MMP-9 it was 41 nM; at MMP-3, 84 nM.
For `O=C(CC(CCSc1ccccc1)C(=O)O)c1ccc(-c2ccc(Cl)cc2)cc1` (stereo not drawn) [Example 426, [1,1'-Biphenyl]-4-butanoic acid, 4'-chloro-γ-oxo-α-[2-(phenylthio)ethyl]-], in that order: 35 nM, 417 nM and 161 nM.
Turning to `O=C(C[C@H](CS(=O)(=O)c1ccccc1)C(=O)O)c1ccc(-c2ccc(Cl)cc2)cc1` [Example 314, [1,1'-Biphenyl]-4-butanoic acid, 4'-chloro-γ-oxo-α-[(phenylsulfonyl)methyl]-, (S)-], the IC50 was found to be 13 nM on MMP-2, 555 nM on MMP-9 and 399 nM on MMP-3.
For `CCOc1ccc(-c2ccc(C(=O)CC(CCN3C(=O)c4ccccc4C3=O)C(=O)O)cc2)cc1` (stereo not drawn) [Example 273, 2H-Isoindole-2-butanoic acid, α-[2-(4'-ethoxy[1,1'-biphenyl]-4-yl)-2-oxoethyl]-1,3-dihydro-1,3-dioxo-], in that order: 2.27 nM, 1.25 nM and 21 nM.
For `O=C(O)c1ccc(COc2ccc(-c3ccc(C(=O)CC(CCCc4ccccc4)C(=O)O)cc3)cc2)cc1` (stereo not drawn) [Example 113] the same measures were 44 nM, 1330 nM and 28 nM.
For `CCCCC#Cc1ccc(-c2ccc(C(=O)CC(CCCc3ccccc3)C(=O)O)cc2)cc1` (stereo not drawn) [Example 352, [1,1'-Biphenyl]-4-butanoic acid, 4'-(1-hexynyl)-γ-oxo-α-(3-phenylpropyl)-], in that order: 61 nM, 905 nM and 130 nM.
Take `O=C(CC(CCCc1ccccc1)C(=O)O)c1ccc(-c2ccc(Br)cc2)cc1` (stereo not drawn) [Example 134, [1,1'-Biphenyl]-4-butanoic acid, 4'-bromo-γ-oxo-α-(3-phenylpropyl)-]: the 50% inhibitory concentration (IC50) on MMP-2 turned out to be 63 nM; on MMP-9 it was 358 nM; against MMP-3 it was 304 nM.
On to `O=C(CC(CCN1C(=O)c2cc(Cl)c(Cl)cc2C1=O)C(=O)O)c1ccc(-c2ccc(Cl)cc2)cc1` (stereo not drawn) [Example 415, 2H-Isoindole-2-butanoic acid, 5,6-dichloro-α-[2-(4'-chloro[1,1'-biphenyl]-4-yl)-2-oxoethyl]-1,3-dihydro-1,3-dioxo-], for which the IC50 on MMP-2 is 34 nM; against MMP-9 it was 1.2 nM; on MMP-3, 12 nM.
With `O=C(O)[C@H]1[C@H](CN2C(=O)c3ccccc3C2=O)CC[C@@H]1C(=O)c1ccc(-c2ccc(Cl)cc2)cc1` (relative stereo) [Example 360, trans-5-[4-(4-chlorophenyl)phenylcarbonyl]-trans-2-phthalimidomethylcyclopentanecarboxylic acid], the IC50 came to 1.46 nM on MMP-2, 0.93 nM on MMP-9 and 5.46 nM at MMP-3.
On to `CCCCCOc1ccc(-c2ccc(C(=O)CC(CCN3C(=O)c4ccccc4C3=O)C(=O)O)cc2)cc1` (stereo not drawn) [Example 272], for which the IC50 at MMP-2 is 2.28 nM; against MMP-9, 10.8 nM; on MMP-3, 9.2 nM.
As to `O=C(CC(CCCc1ccccc1)C(=O)O)c1ccc(-c2ccc(OCc3ccc(C(F)(F)F)cc3)cc2)cc1` (stereo not drawn) [Example 104, [1,1'-Biphenyl]-4-butanoic acid, γ-oxo-α-(3-phenylpropyl)-4'-[[4-(trifluoromethyl)phenyl]methoxy]-], the 50% inhibitory concentration (IC50) was 63 nM on MMP-2 and 125 nM against MMP-3. For the same compound, the inhibition at 5 µM on MMP-9 came out at 18%.
On to `CCCCC(=O)Nc1ccc(-c2ccc(C(=O)CC(CCc3ccccc3)C(=O)O)cc2)cc1` (stereo not drawn) [Example 140, [1,1'-Biphenyl]-4-butanoic acid, γ-oxo-4'-[(1-oxopentyl)amino]-α-(2-phenylethyl)-], for which the IC50 was 242 nM at MMP-2, greater than 1250 nM against MMP-9 and 1030 nM at MMP-3.
`O=C(CC(CCc1ccc(I)cc1)C(=O)O)c1ccc(-c2ccc(Cl)cc2)cc1` (stereo not drawn) [Example 128, [1,1'-Biphenyl]-4-butanoic acid, 4'-chloro-α-[2-(4-iodophenyl)ethyl]-γ-oxo-]: the half-maximal inhibitory concentration (IC50) at MMP-2 was found to be 145 nM; on MMP-9, 715 nM; on MMP-3 it was 561 nM.
Turning to `O=C(O)[C@@H]1[C@@H](CN2C(=O)c3ccccc3C2=O)OC[C@H]1C(=O)c1ccc(-c2ccc(Cl)cc2)cc1` (relative stereo) [Example 403, 3-Furancarboxylic acid, 4-[(4'-chloro[1,1'-biphenyl]-4-yl)carbonyl]-2-[(1,3-dihydro-1,3-dioxo-2H-isoindol-2-yl)methyl]tetrahydro-, (2α,3β,4α)-], the half-inhibitory concentration (IC50) on MMP-2 worked out at 6.4 nM; against MMP-9, 5.7 nM; on MMP-3, 17 nM.
For `O=C(O)[C@H]1[C@H](CN2C(=O)c3cc(Cl)c(Cl)cc3C2=O)CC[C@@H]1C(=O)c1ccc(-c2ccc(Cl)cc2)cc1` (relative stereo) [Example 391, Cyclopentanecarboxylic acid, 2-[(4'-chloro[1,1'-biphenyl]-4-yl)carbonyl]-5-[(5,6-dichloro-1,3-dihydro-1,3-dioxo-2H-isoindol-2-yl)methyl]-, (1α,2β,5β)-], in that order: 14 nM, 4.2 nM and 19 nM.
For `O=C(O)[C@H]1[C@H](COc2ccc(Cl)cc2)CC[C@@H]1C(=O)c1ccc(-c2ccc(Cl)cc2)cc1` (relative stereo) [Example 388, Cyclopentanecarboxylic acid, 2-[(4'-chloro[1,1'-biphenyl]-4-yl)carbonyl]-5-[(4-chlorophenoxy)methyl]-, (1α,2β,5β)-], in that order: 30 nM, 467 nM and 105 nM.
For `O=C(CC(CCCc1ccccc1)C(=O)O)c1ccc(-c2ccc(OCC3CCCCC3)cc2)cc1` (stereo not drawn) [Example 93, [1,1'-Biphenyl]-4-butanoic acid, 4'-(cyclohexylmethoxy)-γ-oxo-α-(3-phenylpropyl)-] the same measures were 36 nM, greater than 1250 nM and 129 nM.
As for `COC(=O)c1ccccc1S[C@@H]1CC[C@@H](C(=O)c2ccc(-c3ccc(Cl)cc3)cc2)[C@@H]1C(=O)O` [Example 300, (1R,2R,5R)-trans-5-[4-(4-chlorophenyl)phenylcarbonyl]-cis-2-(2-methoxycarbonylphenylthio)cyclopentanecarboxylic acid], the half-inhibitory concentration (IC50) on MMP-2 is 2500 nM; at MMP-9, greater than 1250 nM; against MMP-3 it was greater than 1250 nM.
Consider `O=C(c1ccc(-c2ccc(Cl)cc2)cc1)[C@H]1CCN(C(=O)NCc2ccccc2)[C@@H]1C(=O)O` [Example 168, L-Proline, 3-[(4'-chloro[1,1'-biphenyl]-4-yl)carbonyl]-1-[[(phenylmethyl)amino]carbonyl]-, trans-], for which the IC50 was 15 nM at MMP-2, 163 nM on MMP-9 and 49 nM against MMP-3.
`CCCCCCCCCCOc1ccc(-c2ccc(C(=O)CC(CCCc3ccccc3)C(=O)O)cc2)cc1` (stereo not drawn) [Example 108, [1,1'-Biphenyl]-4-butanoic acid, 4'-(decyloxy)γ-oxo-α-(3-phenylpropyl)-]: the inhibition at 5 µM at MMP-2 (at 5 μM) is 16%; at MMP-9 it was 4%; against MMP-3, 8%.
